How the values were obtained:
[1] = 14 d stability at 37° C. of immunosuppressors in sterile bovine blood with vitamin E at different concentrations; type: physicochemical; conditions: for Decline of concentration (in words): vitamin E 1.0 mg/mL and 1.5 mg/mL
[2] = 14 d stability at 37° C. of immunosuppressors in the system suitability solution with different antioxidants (LC-MS/MS peak area); type: physicochemical; conditions: for Change of content (in words): not adding an antioxidant, system suitability solution and internal standard solution
Description: (§1) Supernatant was taken and detected by high performance liquid chromatography-tandem mass spectrometry; and a spectrogram of the standard curve at the lowest point was shown in FIG. 1. Specific analysis conditions were as follows: gradient elution was used to an instrumental method; and the tandem mass spectrum: electrospray ionization (ESI) ion source and positive ion Multiple Reaction Monitoring (MRM) Mode were taken.
(§2) Antioxidants included 2,6-di-tert-butyl-p-cresol, vitamin E, vitamin C, β-carotene, and sodium metabisulfite.

[3] = 14 d stability at 37° C. of isotope internal standards in the internal standard solution with different antioxidants (LC-MS/MS peak area); type: physicochemical
Description: as §1, §2

[4] = in vitro experiments; cited from earlier work
[5] = 14 d at 37° C., vitamin E 0.5 mg/mL
[6] = 14 d at 37° C., vitamin E 1.0 mg/mL
[7] = 14 d at 37° C., vitamin E 1.5 mg/mL
[8] = 14 d at 37° C., antioxidant 2,6-di-tert-butyl-p-cresol
[9] = 14 d at 37° C., antioxidant Sodium metabisulfite
[10] = 14 d at 37° C., antioxidant Vitamin C
[11] = 14 d at 37° C., antioxidant Vitamin E
[12] = 14 d at 37° C., antioxidant β-carotene
[13] = 14 d at 37° C., free of adding antioxidant
[14] = 14 d at 37° C., antioxidant P-carotene

Sample detection concentration [1, 5]	Sample detection concentration [1, 6]	Decline of concentration (in words) ([1]; 14 d at 37° C.)	Sample detection concentration [1, 7]	Sample detection concentration ([1]; Initial values)	Peak area of system suitability solution [2, 8]	Peak area of system suitability solution [2, 9]	Peak area of system suitability solution [2, 10]	Peak area of system suitability solution [2, 11]	Peak area of system suitability solution [2, 12]	Peak area of system suitability solution [2, 13]	Change of content (in words) ([2]; 14 d at 37° C.)	Peak area of system suitability solution ([2]; Initial values)	Peak area of internal standard solution [3, 8]	Peak area of internal standard solution [3, 14]	Peak area of internal standard solution [3, 9]	Peak area of internal standard solution [3, 10]	Peak area of internal standard solution [3, 11]	Peak area of internal standard solution [3, 13]	Peak area of internal standard solution ([3]; Initial values)	Structure (SMILES)	further results
62.1 ng/mL	75.3 ng/mL	no obvious decline	75.7 ng/mL	80.1 ng/mL	3533	6256	11782	98290	3599	2401	almost dropped dramatically	111146								CO[C@H]1C[C@@H]2CC[C@@H](C)[C@@](O)(O2)C(=O)C(=O)N2CCCC[C@H]2C(=O)O[C@H]([C@H](C)C[C@@H]2CC[C@@H](OCCO)[C@H](OC)C2)CC(=O)[C@H](C)/C=C(\C)[C@@H](O)[C@@H](OC)C(=O)[C@H](C)C[C@H](C)/C=C/C=C/C=C/1C [Everolimus]	Decrease of concentration [1, 5]: 22.5%
													7033	3308	5301	6664	62889	3768	71424	[2H]C([2H])([2H])O[C@H]1C[C@@H]2CC[C@@H](C)[C@@](O)(O2)C(=O)C(=O)N2CCCC[C@H]2C(=O)O[C@H]([C@H](C)C[C@@H]2CC[C@@H](O)[C@H](OC)C2)CC(=O)[C@H](C)/C=C(\C)[C@@H](O)[C@@H](OC)C(=O)[C@H](C)C[C@H](C)/C=C/C=C/C=C/1C [Sirolimus-d3, sirolimus-d3]	
													28579	5494	5764	25618	53397	6069	60178	[2H][13C]([2H])=CC[C@@H]1/C=C(\C)C[C@H](C)C[C@H](OC)[C@H]2O[C@@](O)(C(=O)C(=O)N3CCCC[C@H]3C(=O)O[C@H](/C(C)=C/[C@@H]3CC[C@@H](O)[C@H](OC)C3)[C@H](C)[C@@H](O)C([2H])([2H])C1=O)[C@H](C)C[C@@H]2OC [Tacrolimus-13C-d4, tacrolimus-13C-d4]	
73.3 ng/mL	80.1 ng/mL	no obvious decline	79.0 ng/mL	79.7 ng/mL	27771	8044	30470	69879	8659	7408	almost dropped dramatically	74430								C=CC[C@@H]1/C=C(\C)C[C@H](C)C[C@H](OC)[C@H]2O[C@@](O)(C(=O)C(=O)N3CCCC[C@H]3C(=O)O[C@H](/C(C)=C/[C@@H]3CC[C@@H](O)[C@H](OC)C3)[C@H](C)[C@@H](O)CC1=O)[C@H](C)C[C@@H]2OC [Tacrolimus]	Immunological competence relative to cyclosporine A [4]: 50-100 times

From patent US12135333B2, “Detection kit for detecting immunosuppressors in whole blood by high performance liquid chromatography-tandem mass spectrometry and detection method thereof” (Hangzhou Calibra Diagnostics Co., Ltd., priority 2021, dated 2024)
